ChEMBL document CHEMBL4725409, “Understanding and Improving the Membrane Permeability of VH032-Based PROTACs” (ACS Med Chem Lett, 2020)

Columns and labels:
[1] = Partition coefficient, logD of the compound in 1,9-decadiene and phosphate buffer at pH 7.4 measured after 30 mins under shaking condition by LC-MS analysis; format: physicochemical
[2] = Permeability of the compound in phosphate buffer containing 5% DMSO at pH 7.4 incubated for 15 hrs by PAMPA based LC/MS analysis; format: ADME; conditions: pH 7.4, 15 h

SMILES | logD hydrocarbon water at 0.5 h [1] | Peff [2]
CC(=O)N[C@H](C(=O)N1C[C@H](O)C[C@H]1C(=O)NCc1ccc(-c2scnc2C)cc1)C(C)(C)SCCOCCOCCNC(=O)C[C@@H]1N=C(c2ccc(Cl)cc2)c2c(sc(C)c2C)-n2c(C)nnc21 | -4.3 | 
CC(=O)N1c2ccc(-c3ccc(C(=O)NCCOCCOCC(=O)N[C@H](C(=O)N4C[C@H](O)C[C@H]4C(=O)NCc4ccc(-c5scnc5C)cc4)C(C)(C)C)cc3)cc2[C@H](Nc2ccc(Cl)cc2)C[C@@H]1C | -0.7 | 
Cc1ncsc1-c1ccc(CNC(=O)[C@@H]2C[C@@H](O)CN2C(=O)[C@@H](NC(=O)[C@H](Cc2ccccc2)NC(=O)COCCOCCOCCNC(=O)C[C@@H]2N=C(c3ccc(Cl)cc3)c3c(sc(C)c3C)-n3c(C)nnc32)C(C)(C)C)cc1 | -1.6 | 
Cc1ncsc1-c1ccc(CNC(=O)[C@@H]2C[C@@H](O)CN2C(=O)[C@@H](OC(=O)CCOCCOCCOCCNC(=O)Cc2ccccc2)C(C)(C)C)cc1 | -1.6 | 
Cc1ncsc1-c1ccc(CNC(=O)[C@@H]2C[C@@H](O)CN2C(=O)[C@@H](NC(=O)COCCOCCOCCNC(=O)C[C@@H]2N=C(c3ccc(Cl)cc3)c3c(sc(C)c3C)-n3c(C)nnc32)C(C)(C)C)cc1 | -1.6 | 
Cc1ncsc1-c1ccc(CNC(=O)[C@@H]2C[C@@H](O)CN2C(=O)[C@@H](NC(=O)Cc2ccccc2)C(C)(C)C)cc1 | -0.7 | 
CC(=O)N[C@H](C(=O)N1C[C@H](O)C[C@H]1C(=O)NCc1ccc(-c2scnc2C)cc1)C(C)(C)SCCCCNC(=O)C[C@@H]1N=C(c2ccc(Cl)cc2)c2c(sc(C)c2C)-n2c(C)nnc21 | -3.8 | 
Cc1ncsc1-c1ccc(CNC(=O)[C@@H]2C[C@@H](O)CN2C(=O)[C@@H](NC(=O)COCCOCCOCCOCCOCCOCC(=O)N[C@H](C(=O)N2C[C@H](O)C[C@H]2C(=O)NCc2ccc(-c3scnc3C)cc2)C(C)(C)C)C(C)(C)C)cc1 | -4.3 | 0.005 10^-6 cm/s
Cc1ncsc1-c1ccc(CNC(=O)[C@@H]2C[C@@H](O)CN2C(=O)[C@@H](NC(=O)COCCOCCOCCOCC(=O)N[C@H](C(=O)N2C[C@H](O)C[C@H]2C(=O)NCc2ccc(-c3scnc3C)cc2)C(C)(C)C)C(C)(C)C)cc1 | -3.8 | 0.009 10^-6 cm/s
Cc1ncsc1-c1ccc(CNC(=O)[C@@H]2C[C@H](O)CN2C(=O)[C@@H](NC(=O)COCCOCCOCCOCCOCCOCC(=O)N[C@H](C(=O)N2C[C@@H](O)C[C@H]2C(=O)NCc2ccc(-c3scnc3C)cc2)C(C)(C)C)C(C)(C)C)cc1 | -3.2 | 
CC(=O)N[C@H](C(=O)N1C[C@H](O)C[C@H]1C(=O)NCc1ccc(-c2scnc2C)cc1)C(C)(C)SCCOCCNC(=O)C[C@@H]1N=C(c2ccc(Cl)cc2)c2c(sc(C)c2C)-n2c(C)nnc21 | -3.8 | 
Cc1ncsc1-c1ccc(CNC(=O)[C@@H]2C[C@@H](O)CN2C(=O)[C@@H](NC(=O)CCOCCOCCOCCNC(=O)Cc2ccccc2)C(C)(C)C)cc1 | -2.2 | 
Cc1ncsc1-c1ccc(CNC(=O)[C@@H]2C[C@@H](O)CN2C(=O)[C@@H](NC(=O)COCCOCCNC(=O)C[C@@H]2N=C(c3ccc(Cl)cc3)c3c(sc(C)c3C)-n3c(C)nnc32)C(C)(C)C)cc1 | -1.1 | 
CC(=O)N1c2ccc(-c3ccc(C(=O)NCCOCCOCCOCCOCC(=O)N[C@H](C(=O)N4C[C@H](O)C[C@H]4C(=O)NCc4ccc(-c5scnc5C)cc4)C(C)(C)C)cc3)cc2[C@H](Nc2ccc(Cl)cc2)C[C@@H]1C | -0.7 | 
